In patent US20110288036A1, “Methods for Treating or Preventing Vascular Graft Failure” (priority 2010, published 2011):

Experiments:
[1] = system: Ca2+/calmodulin-dependent protein kinase II (CaMKII); conditions: cited from earlier work
[2] = system: PKA; conditions: AIP 1 μM; cited from earlier work
[3] = system: PKC; conditions: AIP 1 μM; cited from earlier work
[4] = biological target: CaMKIV (Homo sapiens, UniProt Q16566); conditions: AIP 1 μM; cited from earlier work
[5] = system: human saphenous vein (HSV); experiment: Muscle bath: sodium nitroprusside-induced relaxation of human saphenous vein; type: cell-based; conditions: 50 or 100 μM pretreatment; data not shown
Method: De-identified, discarded segments of human saphenous vein (HSV) were collected from consented patients undergoing coronary artery or peripheral vascular bypass surgeries. HSV segments were stored in a saline solution until the end of the surgical procedure, at which time they were placed in cold transplant harvest buffer (100 mM potassium lactobionate, 25 mM KH2PO4, 5 mM MgSO4, 30 mM Raffinose, 5 mM Adenosine, 3 mM Glutathione, 1 mM Allopurinol, 50 g/L Hydroxyethyl starch, pH 7.4). The vessels were used within 24 hours of harvest. Using sterile technique, HSV segments were transferred to a 60-mm Petri dish under a sterile hood. The edges (0.5 mm) of each segment were removed with a blade and excess adventitial tissue and fat removed with minimal manipulation. HSV segments were cut into consecutive rings of approximately 1.0 mm in width to be utilized for organ culture or muscle bath experiments. Two rings from each segment were immediately fixed in 10% formalin at 37° C. for 30 min to obtain pre-culture intimal thickening measurements.
In preparation for testing vein segment functional viability, HSV rings were weighed and their lengths recorded. To focus on smooth muscle responses, the endothelium was mechanically denuded by rolling the luminal surface of each ring at the tip of a fine vascular forceps before suspension in a muscle bath containing a bicarbonate buffer (120 mM NaCl, 4.7 mM KCl, 1.0 mM MgSO4, 1.0 mM NaH2PO4, 10 mM glucose, 1.5 mM CaCl2, and 25 mM […], pH 7.4) equilibrated with 95% O2 and 5% CO2 at 37° C. The rings were stretched and the length progressively adjusted until maximal tension was obtained. […] Rings were maintained at a resting tension of 1 g, which produces maximal responses to contractile agonists as previously determined, and equilibrated for 2 hours in buffer. […]
HSV rings were first contracted with 110 mM KCl (with equimolar replacement of NaCl in bicarbonate buffer) and the generated force was measured. […] Rings were relaxed with a cumulative log dose of sodium nitroprusside (SNP), a nitric oxide donor, and the force generated was recorded. […] Rings were then incubated with either buffer alone or buffer plus 100 μM of MMI-0100 ([…] (SEQ ID NO: 1)) for 2 hours, followed by treatment with the same doses of PE and SNP, and the forces generated again recorded. Measured force was normalized for ring weight and length and percent relaxation was calculated; force generated with 10^−6 M of PE was set as 0% relaxation.
The enhancing effect of MMI-0100 ([…]; SEQ ID NO: 1) on smooth muscle relaxation was examined by pre-treating harvested human saphenous vein (HSV) with MMI-0100 ([…]; SEQ ID NO: 1) before SNP treatment. […] Percentage of relaxation at 0, 0.01, 0.1, and 1.0 μM of SNP was measured. […]

[6] = system: immortalized human pleural mesothelial cells (ATCC CRL-9444); experiment: IL-6 ELISA in TNF-α-stimulated mesothelial cells; type: cell-based
Method: Expression of inflammatory cytokines was induced by applying 1 or 10 ng/ml of TNF-α to cultured mesothelial cells. Briefly, immortalized human pleural mesothelial cells (ATCC CRL-9444) were grown in Medium199 with Earle's BSS, 0.75 mM L-glutamine (Mediatech Inc., Manassas, Va.), 1.25 g/l sodium bicarbonate (Sigma), 3.3 nM epidermal growth factor (EGF) (MBL International, Woburn, Mass.), 40 nM hydrocortisone (Sigma), 870 nM insulin (MBL International), 20 mM HEPES (Sigma), trace elements mixture B (Mediatech Inc., Waltham, Mass.), 10% fetal bovine serum (FBS) (Hyclone), and 1% penicillin/streptomycin (Mediatech Inc., Waltham, Mass.). […] Human mesothelial cells were treated with two different concentrations (1 and 10 ng/mL) of TNF-α for 2, 6, 12, and 24 hours (data not shown). […] Without TNF-α stimulation, mesothelial cells made negligible amounts of IL-6. […] In subsequent experiments designed to determine whether the MMI-0100 peptide ([…]; SEQ ID NO: 1) could reduce TNF-α induced IL-6 expression, both 1 and 10 ng/mL of TNF-α were selected as stimuli. 10 ng/mL of TNF-α is regarded as more physiologically relevant for mesothelial cells.
Prior to cytokine and/or inhibitor treatment, cells were allowed to acclimate in serum-free media consisting of only Medium199 with Earle's BSS, 0.75 mM L-glutamine, 1.25 g/l sodium bicarbonate, 20 mM HEPES, trace elements mixture B (Mediatech Inc., Waltham, Mass.), and 1% penicillin/streptomycin (Mediatech Inc., Waltham, Mass.) for 24 hours. […] Average concentration of IL-6 (pg/ml per 10^5 cells) at each time was determined by cytokine-specific ELISA.

[7] = system: MK2; conditions: known small molecule inhibitor of MK2; ATP competitive; cited from earlier work

Sequence of CaMKIV (Q16566 whole entry, species assumed): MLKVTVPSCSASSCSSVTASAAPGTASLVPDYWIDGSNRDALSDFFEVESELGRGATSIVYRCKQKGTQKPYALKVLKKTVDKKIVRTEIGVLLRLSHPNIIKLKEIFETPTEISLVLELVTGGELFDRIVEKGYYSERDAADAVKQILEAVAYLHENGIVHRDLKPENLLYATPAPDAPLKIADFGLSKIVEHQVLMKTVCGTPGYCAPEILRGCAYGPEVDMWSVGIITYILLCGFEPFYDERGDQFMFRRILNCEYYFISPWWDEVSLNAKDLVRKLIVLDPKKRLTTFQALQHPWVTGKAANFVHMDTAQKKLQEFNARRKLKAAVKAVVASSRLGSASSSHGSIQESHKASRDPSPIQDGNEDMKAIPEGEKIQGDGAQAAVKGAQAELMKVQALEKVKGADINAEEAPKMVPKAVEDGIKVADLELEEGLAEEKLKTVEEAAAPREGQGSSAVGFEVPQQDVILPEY

For “autocamtide-2 related inhibitory peptide [AIP]”, the CaMKII activity ([1]; AIP 1 μM) is listed as “inhibited completely”, the IC50 [1] is listed as 100 nM and the PKA activity [2] is listed as “not affected”. For the same compound, the PKC activity [3] was “not affected” and the CaMKIV activity [4] was “not affected”.
For “YARAAARQARA (mammal) [PTD peptide, control peptide (transduction domain, PTD peptide), reference compound]”, the “relaxation response vs untreated control” value [5] was “no significant difference in relaxation response”.
With `CC(=O)c1c(O)c(C)c(O)c(Cc2c(O)c3c(c(C(=O)/C=C/c4ccccc4)c2O)OC(C)(C)C=C3)c1O` [Rottlerin, reference compound] the IL-6 expression ([6]; TNF-α 1 ng/mL, 6 hrs) was “significantly increased IL-6 expression above that induced by TNF-α alone”, the IL-6 expression ([6]; TNF-α 1 ng/mL, MMI-0100 1000 or 3000 μM, 6, 12, 24 hours) was “ineffective in reducing IL-6 expression” and the IL-6 expression ([6]; TNF-α 10 ng/mL, 6, 12, 24 hours) was “reduced IL-6 expression only at a higher dose (1 μM) and only at twenty-four hours after treatment”. For the same compound, the IC50 [7] was 5000 nM.
